Data taken from patent publication US10858331B1, “Ester nitrates derivatives of aromatic aldehydes with multiple pharmalogic properties to treat sickle cell disease” (VIRGINIA COMMONWEALTH UNIVERSITY, priority 2013, dated 2020).

Tests used:
Hb = target: T1, Hb (Homo sapiens, UniProt P68871+P69905); assay: Oxygen equilibrium curve (OEC) study with normal whole blood (AA); type: cell-based; details: 2 mM compound, 1.5 h incubation; for P50: 37° C.; for ΔP50: versus DMSO control
T1 construct: normal whole blood (AA); from tissue; host or cells: normal whole blood (AA), red blood cells
Procedure: (§1) Studies were performed on compounds TD-7, TD-7-1, TD-8, TD-8-1, TD-9 and TD-9-1 using 100 mM stock solution in DMSO and normal whole blood (AA). TD-7, TD-8 and TD-9 are compounds with a hydroxymethyl group on the pyridine ring, while TD-7-1, TD-8-1 and TD-9-1 are the respective nitrate ester derivatives. The whole blood samples had hematocrit values ranging from 29-36%, and cell-free purified Hb of 10-12 g/dL in the absence or presence of effectors solubilized in DMSO at 2 mM or in some cases with varying compound concentration. The blood samples were incubated in an IL 237 tonometer (Instrumentation Laboratories, Inc., Lexington, Mass.) for about 5-7 min at 37° C. against a gas mixture containing O2 concentrations of 0.804%, 2.935% and 5.528% and allowed to equilibrate at O2 tensions of 6, 20 and 40 mmHg. After equilibration, the sample was removed via syringe and aspirated into a ABL 700 series table top automated blood gas analyzer (Radiometer America, Inc., Westlake, Ohio) to determine total hemoglobin (tHb), hematocrit (Hct), pH, pCO2, partial pressure of oxygen (pO2), and the Hb oxygen saturation values (sO2). Similar procedures were followed for concentration and time dependence studies. The measured values of pO2 and sO2 at each oxygen saturation level were then subjected to a non-linear regression analysis using the program Scientist (Micromath, Salt Lake City, Utah) with the following equation: […]
This equation was used to calculate P50 and Hill coefficient (N) values. Corresponding control experiments without the test compound (P50control) but containing DMSO were also performed.

cell-free Hb = target: T2, cell-free Hb (Homo sapiens, UniProt P68871+P69905); assay: OEC study with normal cell-free Hb; type: biochemical; details: cell-free Hb 12 mg/mL, 2 mM compound; for N (Hill coefficient) / P50: n = 1; for ΔP50: versus control P50 12.5
T2 construct: Hemoglobin was prepared from centrifuging human blood; from tissue; host or cells: human blood (red cells lysed, Hb purified on DEAE sephacel)
Procedure: as §1
Hemoglobin was prepared from centrifuging human blood at 2500 rpms for 20 min at 4° C. The supernatant solution, debris and plasma were discarded from the centrifuge bottles, leaving behind RBCs. The RBCs were washed thrice with an excess volume of 0.9% NaCl, and once with 1.0% NaCl, each time centrifuging and discarding the supernatant solution. The RBCs were pooled together into a chilled flask and hemolyzed to free Hb by adding 1-2 volume excess of 50 mM Tris buffer, pH 8.6 (containing EDTA). The mixture was allowed to stand in ice for 30 min with occasional stirring. The Hb solution was centrifuged at 10,000 rpm for 2 h at 4° C. The supernatant Hb solution was pooled into a chilled flask and NaCl (40-60 mg/mL Hb solution) was slowly added with stirring. Hemoglobin solution was centrifuged at 10,000 rpm for 2 h at 4° C. to remove any cell stroma remnants. The clear supernatant Hb solution was pooled into a chilled flask and the “syrupy” pellet was discarded. Hemoglobin solution was dialyzed against 50 mM Tris buffer, pH 8.6 (containing EDTA) at 4° C. to remove NaCl and/or other low molecular weight impurities. Strips of standard cellulose dialysis tubing that had been washed 3-4 times and boiled for 10 min in deionized water were used for dialysis. The dialyzed Hb was further purified by ion-exchange chromatography using DEAE sephacel to exclude 2,3-DPG. The resin was equilibrated with 50 mM Tris buffer, pH 8.6, and the Hb solution was run through the column with 50 mM Tris buffer, pH 8.6 (containing EDTA). The pooled fractions were concentrated with an Amicon stirred cell (Amicon, Model 402), to a final HbA concentration of about 80-120 mg/mL. Concentrated HbA was stored at −80° C.
As a result of the low left-shifting activities of TD-8 and TD-9, as well as the nitrate ester derivatives, we further evaluated the activity of the compounds TD-1, TD-7, TD-7-1, TD-8, and TD-9 using cell-free Hb (devoid of any proteins, enzymes, plasma and cell membranes) to determine whether plasma protein or RBC membrane could have any effect on compound biological activity. Previous studies have shown limited effect of plasma protein and RBC membrane on SHMF activity. The same tonometry procedure used on whole blood was used with the cell-free hemoglobin using 2 mM compound and 12 mg/mL of Hb.

[1] = NO release study (Griess assay) in presence of L-cysteine; details: for NO2− release after 1 hour / NO2− release after 16 hours: 2 mM compound solution mixed with 36 mM L-cysteine, phosphate buffer pH 7.4, 37° C., anaerobic; for NO release in the form of NO2− (rank among the compounds): comparison of the four nitrate esters
Procedure: Griess assay was performed on the left-shifting nitrate ester compounds (TD-1, […], TD-8-1 and, TD-9-1) to measure the release of NO. Griess assay is a colorimetric assay, used for detection of NO in the form of nitrite ions (NO2^−). NO released in solution is highly unstable, with a half-life of 1 to 30 s. It gets rapidly oxidized to NO2^− which is detected by the Griess reagent. In this method, NO2^−, first reacts with the sulfanilamide present in the reagent to form a transient diazonium salt. […] Sodium nitrite (NaNO2) was used as a standard for the Griess assay. NaNO2 samples in deionized water were prepared of concentrations within the linear range of the assay (1-100 μM). The samples were incubated for 30 min at 37° C., after which Griess reagent was added and absorbance was measured at 540 nm. The measured absorbances were used to obtain a standard curve (FIG. 3). For the measurement of NO2^− release for all the test compounds (TD-1, TD-7-1, TD-8-1 and TD-9-1), the absorbances were extrapolated from the standard NaNO2 curve.
In this assay, a solution of the test compound (1 mL of a 2 mM solution in 0.1 M phosphate buffer (pH 7.4)) was mixed thoroughly with a freshly prepared solution of L-cysteine (1 mL of a 36 mM solution in 0.1 M phosphate buffer, pH 7.4), and incubated at 37° C., for 1 and 16 h under anaerobic conditions. After exposure to air for 10 min at 25° C., an aliquot of the Griess reagent (1 mL) [freshly prepared by mixing equal volumes of 1.0% sulfanilamide (prepared and stored in aqueous 5% phosphoric acid) and 0.1% N-naphthylethylenediamine dihydrochloride in water] was added to an equal volume (1 mL) of each incubation solution after mixing. After 10 min, absorbance was measured at 540 nm using a Hewlett Packard (Agilent) 8453 UV-visible Spectroscopy. NaNO2 solutions of 1-100 μM concentrations were used to prepare a standard nitrite curve of absorbance […] versus concentration (μM). The NO released (quantitated as NO2^− release in μM) was calculated from the standard nitrite curve by extrapolation of the absorbance. […]

SS cells = assay: In vitro RBC anti-sickling (morphological) study with SS cells; type: cell-based, human
Procedure: In vitro RBC morphological (anti-sickling) analysis was conducted at the Children's Hospital of Philadelphia (by Drs. Toshio Asakura and Osheiza Abdulmalik). The anti-sickling effects of 5HMF, TD-7 HCl, TD-7, TD-1, and TD-7-1 were studied by incubating suspensions of SS cells in the absence or presence of three different concentrations of the effectors in the presence of air for 1 h at 37° C. followed by incubation under 4% oxygen at 37° C. for 5 h. All samples were pre-incubated for 1 h with various compounds and then incubated under 4% O2 for 5 h. […] Table 5 represents the concentrations of the effectors along with the % inhibition of sickling cells. The hemolysates that had been prepared from SS cells after incubation with test compounds were also subjected to cation-exchange HPLC as previously reported (Abdulmalik et al., 2005).

T2 sequence (P69905 2-142 limits assumed): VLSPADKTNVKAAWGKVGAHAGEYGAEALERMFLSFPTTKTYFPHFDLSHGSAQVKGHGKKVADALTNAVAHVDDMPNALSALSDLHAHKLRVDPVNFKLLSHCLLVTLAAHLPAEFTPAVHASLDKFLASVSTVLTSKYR
T2 sequence (P68871 2-147 limits assumed): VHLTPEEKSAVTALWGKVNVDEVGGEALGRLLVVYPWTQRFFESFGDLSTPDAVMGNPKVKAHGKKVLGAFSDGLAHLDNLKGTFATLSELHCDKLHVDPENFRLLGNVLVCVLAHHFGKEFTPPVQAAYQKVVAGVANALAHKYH
T1 sequence (P69905 2-142 limits assumed): as the sequence (P69905 2-142 limits assumed) above
T1 sequence (P68871 2-147 limits assumed): as the sequence (P68871 2-147 limits assumed) above

Compound: O=Cc1ccc(CO[N+](=O)[O-])o1 [TD-1, 5-Nitrooxymethyl furfural]
- N (Hill coefficient) (Hb): 1.9 ± 0.1^c†
- P50 (Hb): 27.4 ± 2.3^c† mmHg
- ΔP50 (Hb): −3.9 mmHg
- N (Hill coefficient) (cell-free Hb): 2.0
- P50 (cell-free Hb): 8.4 mmHg
- ΔP50 (cell-free Hb): −4.1 mmHg
- NO2− release after 1 hour [1]: 4.02 µM
- NO release in the form of NO2− (rank among the compounds) [1]: least release
- Anti-sickling effect (in words) (SS cells; SS cells, 4% O2, 5 h, concentration not given, in comparison with 5HMF): only a modest decrease in the anti-sickling effect

Compound: COc1ccc(OCc2cccc(CO[N+](=O)[O-])n2)c(C=O)c1 [TD-7-1, (6-((2-Formyl-4-methoxyphenoxy)methyl)pyridin-2-yl)methyl nitrate]
- N (Hill coefficient) (Hb): 1.7 ± 0.1^c†
- P50 (Hb): 23.4 ± 1.6^c† mmHg
- ΔP50 (Hb): −7.9 mmHg
- N (Hill coefficient) (cell-free Hb): 2.1
- P50 (cell-free Hb): 7.7 mmHg
- ΔP50 (cell-free Hb): −3.9 mmHg
- NO2− release after 1 hour [1]: 7.61 µM
- NO2− release after 16 hours [1]: 59.25 µM
- inhibition at 500 µM (SS cells; Homo sapiens, 0.5 mM, SS cells, 1 h air then 4% O2, 37° C., 5 h, read-out: Inhibition of sickled cells): 72%
- inhibition at 1000 µM (SS cells; Homo sapiens, 1.0 mM, SS cells, 1 h air then 4% O2, 37° C., 5 h, read-out: Inhibition of sickled cells): 100%
- inhibition at 2000 µM (SS cells; Homo sapiens, 2.0 mM, SS cells, 1 h air then 4% O2, 37° C., 5 h, read-out: Inhibition of sickled cells): 100%
- Hemolysis of RBC (SS cells; at higher drug concentrations): hemolyzed the RBC at higher drug concentrations

Compound: COc1ccc(C=O)cc1OCc1cccc(CO[N+](=O)[O-])n1 [TD-8-1, (6-((5-Formyl-2-methoxyphenoxy)methyl)pyridin-2-yl)methyl nitrate]
- N (Hill coefficient) (Hb): 2.1^d†
- P50 (Hb): 30.8^d† mmHg
- ΔP50 (Hb): −0.5 mmHg
- NO2− release after 16 hours [1]: 102.54 µM
- NO release in the form of NO2− (rank among the compounds) [1]: most release

Compound: COc1ccc(C=O)c(OCc2cccc(CO[N+](=O)[O-])n2)c1 [TD-9-1, (6-((2-Formyl-5-methoxyphenoxy)methyl)pyridin-2-yl)methyl nitrate]
- N (Hill coefficient) (Hb): 1.9^d†
- P50 (Hb): 28.6^d† mmHg
- ΔP50 (Hb): −2.7 mmHg
- NO2− release after 16 hours [1]: 78.66 µM
